According to patent US10202361B2, “Pyridazinones as herbicides” (E I DU PONT DE NEMOURS AND COMPANY, priority 2014, dated 2019):
Read-outs that look alike come from different tables or passages of the source.

How the values were obtained:
Assay in all cases: Test C pre-/postemergence greenhouse herbicide test
Assay type in all cases: in vivo
[1] = test system: wheat (winter wheat, Triticum aestivum); conditions: Triticum aestivum, Wheat, read-out: Plant response rating; for plant injury at 62 g/ha: 62 g ai/ha; for plant injury at 125 g/ha: 125 g ai/ha; for plant injury at 250 g/ha: 250 g ai/ha
How it was run: (§1)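 Seeds sown in loam soil–sand blend were treated preemergence; plants at 2 to 18 cm (1- to 4-leaf stage) in peat-based medium were treated postemergence. Test chemicals were formulated in a non-phytotoxic solvent mixture with surfactant. After 13 to 15 d in greenhouse, injury was rated visually versus controls, 0 (no effect) to 100 (complete control).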

[2] = test system: oat, wild (wild oat, Avena fatua); conditions: Postemergence
How it was run: as §1

[3] = test system: galium (catchweed bedstraw, Galium aparine); conditions: Galium, read-out: Plant response rating; for pest or weed control at 31 g/ha: 31 g ai/ha; for pest or weed control at 62 g/ha: 62 g ai/ha; for pest or weed control at 125 g/ha: 125 g ai/ha; for pest or weed control at 250 g/ha: 250 g ai/ha
How it was run: as §1

[4] = test system: barnyardgrass (Echinochloa crus-galli); conditions: Barnyardgrass
How it was run: as §1

[5] = test system: blackgrass (Alopecurus myosuroides); conditions: Alopecurus myosuroides, Blackgrass, read-out: Plant response rating; for pest or weed control at 31 g/ha: 31 g ai/ha; for pest or weed control at 62 g/ha: 62 g ai/ha; for pest or weed control at 125 g/ha: 125 g ai/ha; for pest or weed control at 250 g/ha: 250 g ai/ha
How it was run: as §1

[6] = test system: crabgrass, Large (large crabgrass, Digitaria sanguinalis); conditions: Digitaria sanguinalis, Crabgrass, Large, read-out: Plant response rating; for pest or weed control at 31 g/ha: 31 g ai/ha; for pest or weed control at 62 g/ha: 62 g ai/ha; for pest or weed control at 125 g/ha: 125 g ai/ha; for pest or weed control at 250 g/ha: 250 g ai/ha
How it was run: as §1

[7] = test system: waterhemp (common waterhemp, Amaranthus rudis); conditions: Waterhemp
How it was run: as §1

[8] = test system: kochia (Kochia scoparia); conditions: Postemergence
How it was run: as §1

[9] = test system: morningglory (Ipomoea coccinea); conditions: Morningglory
How it was run: as §1

[10] = test system: ryegrass, Italian (Italian ryegrass, Lolium multiflorum); conditions: Lolium multiflorum, Ryegrass, Italian, read-out: Plant response rating; for pest or weed control at 31 g/ha: 31 g ai/ha; for pest or weed control at 62 g/ha: 62 g ai/ha; for pest or weed control at 125 g/ha: 125 g ai/ha; for pest or weed control at 250 g/ha: 250 g ai/ha
How it was run: as §1

[11] = test system: ragweed (common ragweed, Ambrosia elatior); conditions: Ambrosia artemisiifolia, Ragweed, read-out: Plant response rating; for pest or weed control at 31 g/ha: 31 g ai/ha; for pest or weed control at 62 g/ha: 62 g ai/ha; for pest or weed control at 125 g/ha: 125 g ai/ha; for pest or weed control at 250 g/ha: 250 g ai/ha
How it was run: as §1

SMILES: Cc1cc(=O)n(-c2ccc(F)cc2)nc1Cc1ccnc(C(F)(F)F)c1 [Compound 1, 2-(4-fluorophenyl)-5-methyl-6-[[2-(trifluoromethyl)-4-pyridinyl]methyl]-3(2H)-pyridazinone]
- plant injury at 31 g/ha ([1]; post-emergence, Postemergence, 31 g ai/ha): 0%
- plant injury at 62 g/ha ([1]; post-emergence, Postemergence): 5%
- plant injury at 125 g/ha ([1]; post-emergence, Postemergence): 5%
- plant injury at 250 g/ha ([1]; post-emergence, Postemergence): 5%
- plant injury at 62 g/ha ([1]; pre-emergence, Preemergence): 5%
- plant injury at 125 g/ha ([1]; pre-emergence, Preemergence): 15%
- plant injury at 250 g/ha ([1]; pre-emergence, Preemergence): 70%
- Plant response rating ([2]; 31 g ai/ha): 5
- Plant response rating ([2]; 62 g ai/ha): 5
- Plant response rating ([2]; 125 g ai/ha): 5
- Plant response rating ([2]; 250 g ai/ha): 5
- pest or weed control at 31 g/ha ([3]; post-emergence, Postemergence): 40%
- pest or weed control at 62 g/ha ([3]; post-emergence, Postemergence): 65%
- pest or weed control at 125 g/ha ([3]; post-emergence, Postemergence): 70%
- pest or weed control at 250 g/ha ([3]; post-emergence, Postemergence): 70%
- pest or weed control at 31 g/ha ([3]; pre-emergence, Preemergence): 95%
- pest or weed control at 62 g/ha ([3]; pre-emergence, Preemergence): 100%
- pest or weed control at 125 g/ha ([3]; pre-emergence, Preemergence): 100%
- pest or weed control at 250 g/ha ([3]; pre-emergence, Preemergence): 100%
- Plant response rating ([4]; Postemergence, 31 g ai/ha): 10
- Plant response rating ([4]; Postemergence, 62 g ai/ha): 10
- Plant response rating ([4]; Postemergence, 125 g ai/ha): 10
- Plant response rating ([4]; Postemergence, 250 g ai/ha): 10
- Plant response rating ([4]; Preemergence, 31 g ai/ha): 35
- Plant response rating ([4]; Preemergence, 62 g ai/ha): 85
- Plant response rating ([4]; Preemergence, 125 g ai/ha): 100
- Plant response rating ([4]; Preemergence, 250 g ai/ha): 100
- pest or weed control at 31 g/ha ([5]; post-emergence, Postemergence): 5%
- pest or weed control at 62 g/ha ([5]; post-emergence, Postemergence): 5%
- pest or weed control at 125 g/ha ([5]; post-emergence, Postemergence): 5%
- pest or weed control at 250 g/ha ([5]; post-emergence, Postemergence): 5%
- pest or weed control at 31 g/ha ([5]; pre-emergence, Preemergence): 30%
- pest or weed control at 62 g/ha ([5]; pre-emergence, Preemergence): 30%
- pest or weed control at 125 g/ha ([5]; pre-emergence, Preemergence): 90%
- pest or weed control at 250 g/ha ([5]; pre-emergence, Preemergence): 90%
- pest or weed control at 31 g/ha ([6]; post-emergence, Postemergence): 5%
- pest or weed control at 62 g/ha ([6]; post-emergence, Postemergence): 5%
- pest or weed control at 125 g/ha ([6]; post-emergence, Postemergence): 10%
- pest or weed control at 250 g/ha ([6]; post-emergence, Postemergence): 20%
- pest or weed control at 31 g/ha ([6]; pre-emergence, Preemergence): 100%
- pest or weed control at 62 g/ha ([6]; pre-emergence, Preemergence): 100%
- pest or weed control at 125 g/ha ([6]; pre-emergence, Preemergence): 100%
- pest or weed control at 250 g/ha ([6]; pre-emergence, Preemergence): 100%
- Plant response rating ([7]; Postemergence, 31 g ai/ha): 50
- Plant response rating ([7]; Postemergence, 62 g ai/ha): 50
- Plant response rating ([7]; Postemergence, 125 g ai/ha): 65
- Plant response rating ([7]; Postemergence, 250 g ai/ha): 65
- Plant response rating ([7]; Preemergence, 62 g ai/ha): 100
- Plant response rating ([7]; Preemergence, 125 g ai/ha): 100
- Plant response rating ([7]; Preemergence, 250 g ai/ha): 100
- Plant response rating ([8]; 31 g ai/ha): 80
- Plant response rating ([8]; 62 g ai/ha): 80
- Plant response rating ([8]; 125 g ai/ha): 85
- Plant response rating ([8]; 250 g ai/ha): 85
- Plant response rating ([9]; Postemergence, 31 g ai/ha): 60
- Plant response rating ([9]; Postemergence, 125 g ai/ha): 70
- Plant response rating ([9]; Postemergence, 250 g ai/ha): 70
- Plant response rating ([9]; Preemergence, 31 g ai/ha): 50
- Plant response rating ([9]; Preemergence, 62 g ai/ha): 90
- Plant response rating ([9]; Preemergence, 125 g ai/ha): 100
- Plant response rating ([9]; Preemergence, 250 g ai/ha): 100
- pest or weed control at 31 g/ha ([10]; post-emergence, Postemergence): 5%
- pest or weed control at 62 g/ha ([10]; post-emergence, Postemergence): 5%
- pest or weed control at 125 g/ha ([10]; post-emergence, Postemergence): 5%
- pest or weed control at 250 g/ha ([10]; post-emergence, Postemergence): 5%
- pest or weed control at 31 g/ha ([10]; pre-emergence, Preemergence): 5%
- pest or weed control at 62 g/ha ([10]; pre-emergence, Preemergence): 10%
- pest or weed control at 125 g/ha ([10]; pre-emergence, Preemergence): 85%
- pest or weed control at 250 g/ha ([10]; pre-emergence, Preemergence): 98%
- pest or weed control at 31 g/ha ([11]; post-emergence, Postemergence): 30%
- pest or weed control at 62 g/ha ([11]; post-emergence, Postemergence): 50%
- pest or weed control at 125 g/ha ([11]; post-emergence, Postemergence): 50%
- pest or weed control at 250 g/ha ([11]; post-emergence, Postemergence): 60%
- pest or weed control at 31 g/ha ([11]; pre-emergence, Preemergence): 25%
- pest or weed control at 62 g/ha ([11]; pre-emergence, Preemergence): 35%
- pest or weed control at 125 g/ha ([11]; pre-emergence, Preemergence): 70%
- pest or weed control at 250 g/ha ([11]; pre-emergence, Preemergence): 100%
